Measurements reported in patent publication US20120101277A1, “CRYSTALLINE FORM OF POSACONAZOLE” (SANDOZ AG, priority 2009, published 2012).

Experiments:
[1] = under the conditions investigated in WO 99/18097; cited from earlier work
[2] = Moisture sorption isotherm (SPS-11 moisture sorption analyzer); assay type: physicochemical
Experimental: The moisture sorption isotherm was recorded with a SPS-11 moisture sorption analyzer (MD Mess-technik, Ulm, D). The measurement cycle was started at 0% relative humidity (RH), increased in 10% steps up to 90% RH and in a 5% step up to 95% RH. The equilibrium condition for each step was set to a constant mass±0.003% over 49 min. The temperature was 25±0.1° C.
At ambient conditions form II-S contains approximately 1 mol water (monohydrate). […] The maximum water content peaks at 5.2% at 90% relative humidity, which corresponds to a water mol ratio of 2.0 (FIG. 4).

Row | SMILES | stability of the crystalline form [1] | water content at ambient conditions ([2]; ambient conditions, per mole posaconazole (monohydrate)) | water mol ratio at maximum water content ([2]; at 90% relative humidity, 25 °C, corresponds to the 5.2% water content) | step of water uptake/loss ([2]; between 0 and 10% relative humidity) | maximum water content ([2]; moisture sorption isotherm, at 90% relative humidity, 25 °C)
1 | CC[C@@H]([C@H](C)O)n1ncn(-c2ccc(N3CCN(c4ccc(OC[C@@H]5CO[C@@](Cn6cncn6)(c6ccc(F)cc6F)C5)cc4)CC3)cc2)c1=O [form II, posaconazole] | unstable | – | – | – | –
2 | CC[C@@H]([C@H](C)O)n1ncn(-c2ccc(N3CCN(c4ccc(OC[C@@H]5CO[C@@](Cn6cncn6)(c6ccc(F)cc6F)C5)cc4)CC3)cc2)c1=O [form II-S, 2,5-anhydro-1,3,4-trideoxy-2-C-(2,4-difluorophenyl)-4-[[4-[4-[4-[1-[(1S,2S)-1-ethyl-2-hydroxypropyl]-1,5-dihydro-5-oxo-4H-1,2,4-triazol-4-yl]phenyl]-1-piperazinyl]phenoxy]methyl]-1-(1H-1,2,4-triazol-1-yl)-D-threo-pentitol] | – | approximately 1 mol water | 2.0 | over 0.5 mol water | 5.2%
